Consider 14 molecules from patent US20210040061A1, “COMPOUND, POLYMER, AND ORGANIC MATERIAL” (Sony Corporation, priority 2018, published 2021).

Data set [1] is described as follows: Limit value (saturation amount) of dissolution of monomer in solvent of hologram recording photosensitive composition. In kind it is physicochemical. The following applies: hologram recording photosensitive composition with 8 g of acetone as solvent. The protocol:
In Comparative Example 5, Hologram Recording Photosensitive Composition 50 was prepared by the same method as in Example 7 by using the same materials in the same amounts as in Example 7, except that 0.88 g of Compound 40-1 (the compound of Comparative Example 1) was used as a monofunctional photopolymerizable monomer. […] Note that the amount (0.88 g) in which Compound 40-1 was used is a limit value (saturation amount) of dissolution of the compound in a solvent.
In Comparative Example 6, Hologram Recording Photosensitive Composition 60 was prepared by the same method as in Example 7 by using the same materials in the same amounts as in Example 7, except that 1 g of Compound 40-2 (the compound of Comparative Example 2) was used as a monofunctional photopolymerizable monomer. […] Note that the amount (1 g) in which Compound 40-2 was used is a limit value (saturation amount) of dissolution of the compound in a solvent.
In Comparative Example 7, Hologram Recording Photosensitive Composition 70 was prepared by the same method as in Example 7 by using the same materials in the same amounts as in Example 7, except that 0.1 g of Compound 40-3 (the compound of Comparative Example 3) was used as a monofunctional photopolymerizable monomer. […] Note that the amount (0.1 g) in which Compound 40-3 was used is a limit value (saturation amount) of dissolution of the compound in a solvent.

Data set [2] in a line: Transparency evaluation of resin compatible film with polyvinyl acetate (visual inspection). The arrangement: key: Good: Transparency is good.; Poor: Coloration is present. The data set is classed as physicochemical. The settings on record: for Transparency: 3 μm film, 10 mg compound + 10 mg polyvinyl acetate, visual inspection; for evaluation of transparency: resin compatible film with PVAc. The source says:
Several drops of each of these resin compositions were dropped onto a 2 cm square glass substrate, a film was formed by a spin coater, and acetone as a solvent was evaporated off, to form a resin compatible film (3 μm thick) of each compound. These films were confirmed to be transparent by visual inspection and were subjected to evaluation of transparency.
The criterion of transparency evaluation is as follows.
Good . . . Transparency is good.
Poor . . . Coloration is present.

A short description of data set [3]: Refractive index measurement (Abbe's refractometer, acetone solutions, analytical curve extrapolated). In kind it is physicochemical. The following applies: light of 589 nm, 25±1° C., extrapolated to volume fraction 1. The procedure:
A refractive index measuring method will be described below.
Average refractive indices of the respective compounds to light of 589 nm at room temperature 25±1° C. were measured by an Abbe's refractometer (ER-1, produced by Erma, Inc.) and were plotted against volume fraction of each compound, to form analytical curves (the densities of the compounds were all 1.00 g/cm^3). The analytical curves were extrapolated, and the refractive index when the volume fraction of each compound is 1 was made to be a refractive index of each compound.

A short description of data set [4]: Solubility measurement in acetone. The settings on record: ultrasonic stirring, visual.
Protocol: When there was an undissolved portion of the compound, a small amount of acetone was added thereto, and then stirring was further conducted for 30 seconds. The above-mentioned work was repeated, and upon dissolution of the whole of the compound, the solubility was calculated from the total amount of the solvent used.
For data set [5] the following is noted: background statement; cited from earlier work.

Each structure is given as a SMILES string.

`C=C(C)C(=O)OCc1cc2ccccc2c2c1sc1ccc3ccccc3c12` [Comparative Example 1, reference compound]: in data set [1], the “limit value (saturation amount) of dissolution of the compound in a solvent” value (from here on “limit value (saturation amount)”) amounted to 0.88 g. The Transparency entry in data set [2] was “Good”. In addition, in data set [3], the “Refractive index (589 nm)” value is reported as 1.73. The Solubility/wt % in data set [4] is given as less than 10 wt %.

Turning to `C=CC(=O)Oc1cccc(OC(=O)C=C)c1CCc1cc2ccccc2c2c1sc1ccc3ccccc3c12` [Example 14], the Transparency result in data set [2] was “Good”. Further, the “Refractive index (589 nm)” value in data set [3] is given as 1.72. Moreover, the Solubility/wt % in data set [4] was greater than 20 wt %.

For `c1ccc2c(c1)ccc1c2sc2ccc3ccccc3c21` [dinaphthothiophene], the refractive index (usually the speed of light in vacuum divided by its phase velocity in the sample) in data set [5] is listed as 1.8.

As to `C=C(C)C(=O)Oc1cc2ccccc2cc1CCc1cc2ccccc2c2c1sc1ccc3ccccc3c12` [Example 15], the Transparency entry in data set [2] is recorded as “Good”. In data set [3], the “Refractive index (589 nm)” value was 1.81. Moreover, the Solubility/wt % in data set [4] is on record as greater than 20 wt %.

`C=C(C)C(=O)OC(C)c1cc2ccccc2c2c1sc1ccc3ccccc3c12` (centres unmarked) [Comparative Example 2, reference compound]: the “limit value (saturation amount)” value in data set [1] is 1 g. Moreover, in data set [2], the Transparency result is “Poor” and the evaluation of transparency result is on record as “Poor”. Moreover, the “Refractive index (589 nm)” value in data set [3] is recorded as 1.71. In addition, the Solubility/wt % in data set [4] was less than 11 wt %.

Take `C=C(C)C(=O)Oc1ccccc1CCc1cc2ccccc2c2c1sc1ccc3ccccc3c12` [Example 1]: the Transparency entry in data set [2] is reported as “Good”. Besides, the “Refractive index (589 nm)” value in data set [3] is recorded as 1.8. In addition, in data set [4], the Solubility/wt % is listed as greater than 20 wt %.

Take `C=C(CCCCCCCCCC)C(=O)Oc1ccccc1CCc1cc2ccccc2c2c1sc1ccc3ccccc3c12` [Example 4]: the Transparency result in data set [2] was “Good”. The “Refractive index (589 nm)” value in data set [3] is 1.7. Moreover, the Solubility/wt % in data set [4] is on record as greater than 20 wt %.

Take `C=C(C)C(=O)Oc1cccc(OC(=O)C(=C)C)c1CCc1cc2ccccc2c2c1sc1ccc3ccccc3c12` [Example 13]: the Transparency result in data set [2] is recorded as “Good”. The “Refractive index (589 nm)” value in data set [3] is 1.73. Further, the Solubility/wt % in data set [4] is on record as greater than 20 wt %.

Take `C=C(C)C(=O)Oc1cccc(CCc2cc3ccccc3c3c2sc2ccc4ccccc4c23)c1` [Example 2]: the Transparency result in data set [2] is on record as “Good”. In addition, in data set [3], the “Refractive index (589 nm)” value is 1.8. In data set [4], this molecule gave a Solubility/wt % greater than 20 wt %.

For `C=C(C)C(=O)Oc1ccc2ccccc2c1CCc1cc2ccccc2c2c1sc1ccc3ccccc3c12` [Example 6], the Transparency result in data set [2] is on record as “Good”. Moreover, the “Refractive index (589 nm)” value in data set [3] is 1.81. The molecule also showed a Solubility/wt % in data set [4] greater than 20 wt %.

Consider `C=C(C)C(=O)Oc1ccccc1CCc1cc2ccccc2c2c1sc1ccc3ccccc3c12` [Example 5], for which, in data set [2], the Transparency result is on record as “Good”. In addition, the “Refractive index (589 nm)” value in data set [3] was 1.7. Besides, in data set [4], the Solubility/wt % is greater than 20 wt %.

With `c1ccc2c(c1)ccc1sc3ccc4ccccc4c3c12` [Comparative Example 4, reference compound], the Transparency result in data set [2] is “Good”. The “Refractive index (589 nm)” value in data set [3] is given as 1.81.

As to `C=C(C)C(=O)Oc1ccc(CCc2cc3ccccc3c3c2sc2ccc4ccccc4c23)cc1` [Example 3], in data set [2], the Transparency result is reported as “Good”. The “Refractive index (589 nm)” value in data set [3] was 1.8. The same molecule yielded a Solubility/wt % in data set [4] greater than 20 wt %.

Take `C=Cc1cc2ccccc2c2c1sc1ccc3ccccc3c12` [Comparative Example 3, reference compound]: in data set [1], the “limit value (saturation amount)” value is recorded as 0.1 g. In data set [2], the Transparency entry is recorded as “Poor” and the evaluation of transparency entry is reported as “Poor”. In addition, in data set [3], the “Refractive index (589 nm)” value was 1.8. For the same molecule, the Solubility/wt % in data set [4] was less than 1.5 wt %.
